Patent US10927136B2, “Phosphorus prodrugs of pyrazolo-substituted pyrimidine sGC stimulators” (Cyclerion Therapeutics, Inc., priority 2016, dated 2021)
pEC50: −log10 of the molar value. Where two headings read alike, the source gives them in different places.

Biological target: T1, sGC enzyme (Homo sapiens, UniProt Q02108+Q02153)
T1 construct: sGC enzyme activity values in HEK cells, determined by the GloSensor assay; host or cells: HEK293 expressing GloSensor 40F cGMP
T1 sequence (Q02153 1-619): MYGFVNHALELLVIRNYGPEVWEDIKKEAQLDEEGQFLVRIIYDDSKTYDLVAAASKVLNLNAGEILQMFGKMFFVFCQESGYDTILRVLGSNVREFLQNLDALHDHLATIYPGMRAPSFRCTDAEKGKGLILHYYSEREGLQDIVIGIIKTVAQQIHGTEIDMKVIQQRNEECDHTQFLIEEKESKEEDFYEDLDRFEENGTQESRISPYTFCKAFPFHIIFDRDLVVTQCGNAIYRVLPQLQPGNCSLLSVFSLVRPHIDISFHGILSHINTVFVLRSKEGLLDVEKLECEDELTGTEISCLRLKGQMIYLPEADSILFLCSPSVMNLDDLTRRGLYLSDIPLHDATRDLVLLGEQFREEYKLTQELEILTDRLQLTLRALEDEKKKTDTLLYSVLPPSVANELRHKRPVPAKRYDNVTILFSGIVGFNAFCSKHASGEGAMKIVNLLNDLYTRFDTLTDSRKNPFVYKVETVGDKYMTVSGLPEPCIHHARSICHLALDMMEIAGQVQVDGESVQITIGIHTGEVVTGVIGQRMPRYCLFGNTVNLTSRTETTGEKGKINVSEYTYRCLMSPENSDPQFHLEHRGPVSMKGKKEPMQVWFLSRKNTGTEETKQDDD
T1 sequence (Q02108 1-690): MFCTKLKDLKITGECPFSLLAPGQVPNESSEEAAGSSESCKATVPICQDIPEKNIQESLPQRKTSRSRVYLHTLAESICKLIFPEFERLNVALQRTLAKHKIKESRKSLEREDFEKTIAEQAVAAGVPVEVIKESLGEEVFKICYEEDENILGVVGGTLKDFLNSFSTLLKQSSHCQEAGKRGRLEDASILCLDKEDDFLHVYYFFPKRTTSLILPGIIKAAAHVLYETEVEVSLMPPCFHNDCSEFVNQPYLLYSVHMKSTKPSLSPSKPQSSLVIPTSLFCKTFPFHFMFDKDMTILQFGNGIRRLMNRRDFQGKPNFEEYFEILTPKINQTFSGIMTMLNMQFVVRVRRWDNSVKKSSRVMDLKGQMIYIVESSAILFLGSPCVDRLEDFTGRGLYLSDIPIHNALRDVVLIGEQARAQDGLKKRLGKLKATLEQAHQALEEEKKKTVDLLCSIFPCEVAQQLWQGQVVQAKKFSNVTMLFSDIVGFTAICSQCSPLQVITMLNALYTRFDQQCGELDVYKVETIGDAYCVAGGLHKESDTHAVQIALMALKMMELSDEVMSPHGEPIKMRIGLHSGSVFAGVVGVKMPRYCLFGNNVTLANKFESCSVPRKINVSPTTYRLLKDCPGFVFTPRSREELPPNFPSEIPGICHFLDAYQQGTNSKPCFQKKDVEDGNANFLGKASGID
Experiment: cGMP GloSensor cell-based assay, 384-well format
Conditions: for pEC50: HEK293 GloSensor 40F cGMP cells, 10 μM DETA-NONOate, read-out: Absolute EC50
From the text: Human embryonic kidney cells (HEK293) cells expressing GloSensor™ 40F cGMP (Part No: CS182801, Promega) were used to evaluate the activity of test compounds. The luminescent biosensors (engineered luciferase) that were incorporated into these cells detect cGMP formed by the compounds stimulating the sGC enzyme and emit luminescence.
cGMP GloSensor cells were maintained in Dulbecco's Modification of Eagle's Medium (DMEM) supplemented with fetal bovine serum (FBS, 10% final) and hygromycine (200 ug/ml). The day before assay, cells were plated in DMEM with 10% FBS in a 50 μL volume at a density of 1.5×10^4 cells/well in a poly-D-lysine coated 384-well flat white-bottom plate (Corning Cat. No. 35661). Cells were incubated overnight at 37° C. in a humidified chamber with 5% CO2. The next day, medium was removed and cells were replaced with 40 ul/well of GloSensor™, 2 mM (Promega Cat No E1291). Cells were treated for 90 minutes at 25° C. to allow the substrate to equilibrate in the cells. Test compounds and Diethylenetriamine NONOate (DETA-NONOate) was diluted to 3 mM (20×) in serum-free CO2 independent medium and serially diluted at 4× dilutions to create 5× dose curve from which 10 ul was added to the wells (x μM concentration for test compound solution and 10 μM concentration for DETA-NONOate solution; wherein x is one of the following final concentrations).
For the kinetics studies, luminescence was measured right away for 0.2 sec per well with Envision (Perkin Elmer). For endpoint SAR screening, data were collected after 55 min incubation at room temperature.
Data analysis was carried out as indicated above in Example 2A.
sGC enzyme activity values in HEK cells, determined by the GloSensor assay, expressed as Absolute EC50 which is defined as the concentration at which a given compound elicits 50% of the high control response obtained with Compound Y, after normalization.

Row | pEC50 (Parent compound column) | pEC50 (prodrug) | SMILES | sGC agonism as compared to parent drug (GloSensor assay)
1 | 7.14 |  | OC(CNc1nc(-c2cc(-c3ccon3)n(Cc3ccccc3F)n2)ncc1F)(C(F)(F)F)C(F)(F)F [Intermediate 3] | 
2 |  | 5.31 | O=P(O)(O)OC(CNc1nc(-c2cc(-c3ccon3)n(Cc3ccccc3F)n2)ncc1F)(C(F)(F)F)C(F)(F)F [Compound I-1] | did not exhibit a high degree of sGC agonism
